Source: patent publication US20120231025A1 (priority 2009, published 2012)
“Also recorded” adds a separate entry of the source. Where two headings read alike, the source gives them in different places.

Tests used:
bone marrow cells = bone marrow cells irradiated with 1 Gy, injected into lethally irradiated recipients (8 Gy); peptide 10 ug per kg intraperitoneally 15-30 minutes after the cells; cited from earlier work
[1] = system: peripheral blood mononuclear cells (PBMC); test: MIMIC peripheral tissue equivalent (PTE) assay; type: cell-based, human
spleen and thymus = details: mice irradiated 2 Gy, peptide 10 μg/kg, cited from earlier work
T-cells in spleen = details: peptide 10 μg/kg, cited from earlier work
influenza antigen = type: in vivo, Balb/c mice
[2] = system: influenza of the H1N2, H3N2, and B strains; parameters: species or system Balb/c mice; details: mouse, in vivo
hematopoietic cells = details: cited from earlier work
allogeneic lymphocytes = details: H-2d anti H-2b, cited from earlier work
antibody forming cells = details: cited from earlier work

Substance: Glu-Trp-OH
- Number of CFU-S (bone marrow cells): 10.5 ± 0.3

Substance: Lys-Glu-(Trp-NH2)-OH
- Number of CFU-S (bone marrow cells): 5.9 ± 0.4

Substance: Val-Glu-Trp-OH
- Number of CFU-S (bone marrow cells): 8.2 ± 0.3

Substance: Ala-Glu-Trp-OH
- Number of CFU-S (bone marrow cells): 8.7 ± 0.4

Substance: Tyr-Glu-Trp-OH
- Number of CFU-S (bone marrow cells): 7.3 ± 0.4

Substance: Ile-Glu-Trp-NH2
- Number of CFU-S (bone marrow cells): 7.9 ± 0.4

Substance: Ile-Glu-(Trp)-OH
- Number of CFU-S (bone marrow cells): 8.5 ± 0.5

Substance: Lys-Glu-Trp-OH
- Number of CFU-S (bone marrow cells): 6.2 ± 0.4

Substance: Pyro-Glu-Trp-OH
- Number of CFU-S (bone marrow cells): 9.3 ± 0.4

Substance: Phe-Glu-Trp-OH
- Number of CFU-S (bone marrow cells): 6.6 ± 0.3

Substance: Lys-Glu-(Trp)-OH
- Number of CFU-S (bone marrow cells): 5.9 ± 0.5

Substance: H-L-Ile-L-Glu-L-Trp-OH [Neogen]
- Cell-surface expression of HLA-DR on dendritic cells [1]: primed for antigen presentation
- Dendritic cells migrating (reverse transmigrating) across the HUVEC layer ([1]; Neogen alone, preliminary): fewer dendritic cells migrating across the HUVEC layer; also recorded: reduced the number of cells found to reverse transmigrate
- Number of dendritic cells recovered ([1]; Neogen alone, preliminary): did not
- Number of dendritic cells recovered ([1]; Neogen in the presence of antigen, preliminary): increased the number of dendritic cells recovered from the system
- Dendritic cells migrating (reverse transmigrating) across the HUVEC layer ([1]; Neogen plus antigen, preliminary): fewer dendritic cells migrating across the HUVEC layer; also recorded: reduced the number of cells found to reverse transmigrate
- Differentiation of donor PBMCs into macrophages and dendritic cells ([1]; as little as 1 ug/mL of Neogen in the presence of antigen, preliminary): enhanced the ability of donor PBMCs to differentiate into macrophages and dendritic cells
- Karyocyte count in thymus (spleen and thymus; 3 and 4 injections): a certain growth of the karyocyte count in thymus
- Karyocyte count in spleen per mg of organ weight (spleen and thymus; one and four injections): increase in the karyocyte count in spleen
- T-cell count (T-cells in spleen; intact mice, 3 or 4 times): being the same as it was
- T-cell count in spleen (T-cells in spleen; mice irradiated 2 Gy, 1 to 4 injections, especially three or four): grew in all mice who received the peptide injections
- IgG1 levels (area-under-the-curve analysis) (influenza antigen; low-dose Neogen with Vaxigrip compared with Vaxigrip alone): statistically significant increase in IgG1 levels
- IgG1 response (influenza antigen; mouse, in vivo): progressively lower IgG1 responses
- IgG2a response (influenza antigen; mouse, in vivo): higher IgG2a responses
- HI titer [2]: higher response than any of the other groups; also recorded: higher HI response
- HI titer ([2]; sc): no HI titer
- Hemoglobin levels (hematopoietic cells; animals first irradiated and then treated, U.S. Pat. No. 6,159,950, Example 8): more rapidly restored hemoglobin levels
- Antibody forming cells (AFC) after challenge with sheep erythrocytes (hematopoietic cells; irradiated mice, U.S. Pat. No. 6,159,950, Example 4): making antibody forming cells (AFC) against the challenge
- Proliferation of allogeneic lymphocytes in MLC (allogeneic lymphocytes; peptide 0.1 μg/mL): negligible inhibition of the proliferation
- Proliferation of allogeneic lymphocytes in MLC (allogeneic lymphocytes; peptide 1, 10, and 20 μg/mL): stimulated proliferation of the allogeneic lymphocytes
- Number of CFU-S (bone marrow cells): 11.5 ± 0.3
- AFC increase, humoral response to SE (antibody forming cells; intact mice, peptide 10 μg/kg intramuscularly, 3 or 4 times): 5 times
- Number of antibody forming cells (antibody forming cells; mice irradiated 2 Gy, peptide 10 μg/kg, 3 and 4 injections): practically doubled

Substance: Leu-Glu-Trp-OH
- Number of CFU-S (bone marrow cells): 6.5 ± 0.5

Substance: iGlu-Trp-OH
- Number of CFU-S (bone marrow cells): 10.1 ± 0.5
